The values that follow come from the SangsterLogP compilation.

A short description of this series: method code SF-HPLC, from DOI: 10.1016/j.ejmech.2014.10.073, PMID: 25462263. Conditions: pH 7.4.
As to `CCOc1cc(CC(=O)OCCC(F)(F)F)c(F)cc1OCC(=O)N(CC)CC`, the logD – broadly, the decadic logarithm of the distribution of all forms, ionised or not, between an organic phase and buffer at a given pH – turned out to be 3.06.

Regarding `CCOc1cc(CC(=O)OCC(F)(F)F)cc(F)c1OCC(=O)N(CC)CC`, the logD was determined as 2.78.

Take `CCOc1cc(CC(=O)OCC(F)(F)F)c(F)cc1OCC(=O)N(CC)CC`: the logD came to 2.9.

As to `CCN(CC)C(=O)COc1cc(F)c(CC(=O)OC(C)C)cc1OC`, the logD was found to be 2.19.

`CCCOC(=O)Cc1cc(OCC)c(OCC(=O)N(CC)CC)cc1F` showed a logD of 2.72.

With `CCN(CC)C(=O)COc1c(F)cc(CC(=O)OCC(F)(F)F)cc1OC`, the logD is 2.51.

For `CCOc1cc(CC(=O)OC(C)C)c(F)cc1OCC(=O)N(CC)CC`, the logD stood at 2.59.

`CCOc1cc(CC(=O)OCCC(F)(F)F)cc(F)c1OCC(=O)N(CC)CC` showed a log distribution coefficient (logD) of 3.1.

`CCN(CC)C(=O)COc1cc(F)c(CC(=O)OCCC(F)(F)F)cc1OC`: the logD amounted to 2.94.

For the compound `CCOC(=O)Cc1cc(OCC)c(OCC(=O)N(CC)CC)cc1F`, the logD was 2.57.

Compound `CCCOC(=O)Cc1cc(F)c(OCC(=O)N(CC)CC)c(OCC)c1` came in with a logD of 2.63.

As for `CCCOC(=O)Cc1cc(OC)c(OCC(=O)N(CC)CC)cc1F`, the logD was determined as 2.36.

As to `CCCOC(=O)Cc1ccc(OCC(=O)N(CC)CC)c(OC)c1`, the log distribution coefficient (logD) stood at 2.6.

For `CCOc1cc(CC(=O)OC(C)C)cc(F)c1OCC(=O)N(CC)CC`, the pH-dependent lipophilicity (logD) turned out to be 2.46.

Turning to `CCCOc1cc(CC(=O)OC(C)C)c(F)cc1OCC(=O)N(CC)CC`, the logD was 2.95.

In turn, `CCN(CC)C(=O)COc1ccc(CC(=O)OCCC(F)(F)F)c(OC)c1F` registered a pH-dependent lipophilicity (logD) of 2.83.

In turn, `CCCOC(=O)Cc1ccc(OCC(=O)N(CC)CC)c(OCC)c1` came in with a log distribution coefficient (logD) of 2.67.

With `CCOC(=O)Cc1cc(OC)c(OCC(=O)N(CC)CC)cc1F`, the logD was 2.07.

For the compound `CCOC(=O)Cc1cc(F)c(OCC(=O)N(CC)CC)c(OCC)c1`, the logD was found to be 2.41.

Regarding `CCN(CC)C(=O)COc1c(F)cc(CC(=O)OCCC(F)(F)F)cc1OC`, the logD was 2.81.

`CCOc1cc(CC(=O)OCC(C)C)c(F)cc1OCC(=O)N(CC)CC` had a logD of 3.03.

On to `CCN(CC)C(=O)COc1cc(F)c(CC(=O)OCC(F)(F)F)cc1OC`, for which the log distribution coefficient (logD) is 2.49.

In turn, `CCOC(=O)Cc1ccc(OCC(=O)N(CC)CC)c(F)c1OC` registered a logD of 2.29.
